Source: patent publication US20080124718A1, “METHODS OF DIAGNOSING, PREDICTING THERAPEUTIC EFFICACY AND SCREENING FOR NEW THERAPEUTIC AGENTS FOR LEUKEMIA” (Panacea Pharmaceuticals, Inc., priority 2006, published 2008)
Counter-ions that a name gives are not always drawn.

Tests used:
[1] = tested on: gastrointestinal stromal tumor (GIST) cells, which express an activating c-kit mutation; settings: in vitro; cited from earlier work
[2] = tested on: human aspartyl (asparaginyl) β-hydroxylase (HAAH) mRNA expression; assay: HAAH mRNA expression (qRT-PCR) in patient leukocytes cultured with or without imatinib; assay type: cell-based; settings: 1 μM imatinib, 24 hours, vs untreated cells
Source text: This assay procedure allows the quantitative comparison of test RNA to a standard curve using single tube TaqMan® reactions.
Analyze as described in Perkin Elmer sequence detection system manual. A standard amplification curve of ASPH-B was obtained previously, to which unknown samples are compared to obtain the number of copies of HAAH mRNA in the sample.
Patient leukocytes were isolated from patient blood samples and grown in culture in the presence or absence of imatinib mesylate. After overnight incubation, qRT-PCR was used to determine human aspartyl (asparaginyl) β-hydroxylase (HAAH) mRNA expression in both treated and untreated cells. Percentage decrease in mRNA expression level is determined by comparing expression levels in treated vs. non-treated leukocytes from each individual patient.
[…]. This percentage change is consistent with a prediction of sensitivity to imatinib mesylate, based on numerous studies done by the present inventors. […].

Cc1ccc(NC(=O)c2ccc(CN3CCN(C)CC3)cc2)cc1Nc1nccc(-c2cccnc2)n1 [imatinib, Imatinib mesylate]
apoptosis [1]: induces apoptosis
proliferation [1]: inhibits proliferation
decrease in HAAH expression after culture in the presence of imatinib ([2]; leukocytes of 27 CML patients (later responders)): 30-75%
reduction in HAAH transcript levels after culture in the presence of imatinib ([2]; leukocytes of the 12 other CML patients (non-responders)): < 25%
